One assay concerns the target T1, Human Recombinant Matriptase 2 (Homo sapiens, UniProt Q8IU80).
T1 construct: made in house
T1 sequence (Q8IU80 1-811): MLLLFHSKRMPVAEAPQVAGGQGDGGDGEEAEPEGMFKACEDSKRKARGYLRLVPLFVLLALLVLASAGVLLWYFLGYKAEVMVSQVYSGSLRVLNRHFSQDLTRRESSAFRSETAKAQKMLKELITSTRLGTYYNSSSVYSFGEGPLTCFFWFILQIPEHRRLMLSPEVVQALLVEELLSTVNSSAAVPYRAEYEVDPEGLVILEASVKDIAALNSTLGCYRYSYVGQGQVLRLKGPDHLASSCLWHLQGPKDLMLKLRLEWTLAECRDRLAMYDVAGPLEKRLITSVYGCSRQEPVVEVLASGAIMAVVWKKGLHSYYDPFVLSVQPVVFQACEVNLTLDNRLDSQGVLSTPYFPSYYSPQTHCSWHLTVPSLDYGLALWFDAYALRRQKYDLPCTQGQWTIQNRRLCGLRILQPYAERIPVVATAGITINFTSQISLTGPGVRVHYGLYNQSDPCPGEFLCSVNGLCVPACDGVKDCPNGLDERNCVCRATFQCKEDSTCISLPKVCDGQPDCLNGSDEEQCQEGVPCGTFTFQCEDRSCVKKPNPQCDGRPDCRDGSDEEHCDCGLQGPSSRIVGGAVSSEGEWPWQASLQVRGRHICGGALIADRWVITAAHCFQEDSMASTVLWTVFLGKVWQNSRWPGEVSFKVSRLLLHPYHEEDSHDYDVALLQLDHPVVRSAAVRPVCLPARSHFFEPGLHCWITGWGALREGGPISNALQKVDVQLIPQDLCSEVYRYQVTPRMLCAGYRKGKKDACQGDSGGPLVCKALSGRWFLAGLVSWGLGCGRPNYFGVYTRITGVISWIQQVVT
The experiment in a line: Matriptase 2 inhibition, fluorescence based assay (Method I). The class given is biochemical. The note with it: Table A; Ki of Matriptase-2; read-out: Mat-2 Ki. Summed up:
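In-house recombinant enzyme (3.5 nM), preincubated 30 min with compound, then Boc-Gln-Ala-Arg-AMC substrate (62 μM) in 50 mM Tris pH 7.5, 150 mM NaCl, 0.01% gelatin, 1% DMSO, 25 °C. Fluorescence (Ex 360/Em 480 nm) read 60 min after substrate; IC50 from variable-slope sigmoidal fit of % inhibition.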
`CN1CCN(CCOC(=O)c2cc3ccc(CN)nc3n2Cc2cc(NS(=O)(=O)Cc3ccsc3)cc3ccccc23)CC1` [Compound 161, 2-(4-methylpiperazin-1-yl)ethyl 6-(aminometh-yl)-1-({3-[(thiophen-3-yl)methanesulfonamido]-naphthalen-1-yl}meth-yl)-1H-pyrrolo[2,3-b]-pyridine-2-carboxylate]: the Ki is at most 100 nM.
The same measure, in the same setting: the same measure for `CN(C)C(=O)COC(=O)c1cc2ccc(CN)nc2n1Cc1cc(NS(=O)(=O)Cc2ccccc2)cc2ccccc12` [Compound 139, (dimethylcarbamoyl)-methyl 6-(aminomethyl)-1-{[3-(phenylmethane-sulfonamido)naphthalen-1-yl]methyl}-1H-pyrrolo-[2,3-b]pyridine-2-car-boxylate]: 100 to 500 nM; for `CN1CCC[C@H](OC(=O)c2cc3ccc(CN)nc3n2Cc2cc(NS(=O)(=O)Cc3ccccc3)cc3ccccc23)C1` (racemic) [Compound 99, 1-methylpiperidin-3-yl 6-(aminomethyl)-1-{[3-(phenylmethanesulfon-amido)naphthalen-1-yl]-methyl}-1H-pyrrolo[2,3-b]pyridine-2-carboxylate]: 100 to 500 nM; for `CN(C)CCOCCOC(=O)c1cc2ccc(CN)nc2n1Cc1cc(NS(=O)(=O)Cc2ccccc2)cc2ccccc12` [Compound 58, 2-[2-(dimethylamino)-ethoxy]ethyl 6-(amino-methyl)-1-{[3-(phenyl-methanesulfonamido)-naphthalen-1-yl]methyl}-1H-pyrrolo[2,3-b]pyr-idine-2-carboxylate]: at most 100 nM.
The same measure, in the same setting: in the case of `CC(=O)N1CCC(COC(=O)c2cc3ccc(CN)nc3n2Cc2cc(NS(=O)(=O)Cc3ccccc3)cc3ccccc23)CC1` [Compound 67, (1-acetylpiperidin-4-yl)-methyl 6-(aminomethyl)-1-{[3-(phenylmethane-sulfonamido)naphthalen-1-yl]methyl}-1H-pyr-rolo[2,3-b]pyridine-2-carboxylate] it was at most 100 nM.
The same measure, in the same setting: the same measure for `CNCCCOC(=O)c1cc2ccc(CN)nc2n1Cc1cc(NS(=O)(=O)Cc2ccccc2)cc2ccccc12` [Compound 35, 3-(methylamino)propyl 6-(aminomethyl)-1-{[3-(phenylmethanesulfon-amido)naphthalen-1-yl]-methyl}-1H-pyrrolo[2,3-b]pyridine-2-carboxylate]: at most 100 nM.
With `NCc1ccc2cc(C(=O)OCc3ccccn3)n(Cc3cc(NS(=O)(=O)Cc4ccccc4)cc4ccccc34)c2n1` [Compound 85, (pyridin-2-yl)methyl 6-(aminomethyl)-1-{[3-(phenylmethanesulfon-amido)naphthalen-1-yl]-methyl}-1H-pyrrolo[2,3-b]pyridine-2-carboxylate], the Ki was 100 to 500 nM.
On the same count and under the same terms, in the case of `NCc1ccc2cc(C(=O)OCc3cccnc3)n(Cc3cc(NS(=O)(=O)Cc4ccccc4)cc4ccccc34)c2n1` [Compound 81, (pyridin-3-yl)methyl 6-(aminomethyl)-1-{[3-(phenylmethanesulfon-amido)naphthalen-1-yl]-methyl}-1H-pyrrolo[2,3-b]pyridine-2-carboxylate] it was at most 100 nM; in that of `NCc1ccc2cc(C(=O)OCC3CCN(CC(F)F)CC3)n(Cc3cc(NS(=O)(=O)Cc4ccccc4)cc4ccccc34)c2n1` [Compound 107, [1-(2,2-difluoroethyl)-piperidin-4-yl]methyl 6-(aminomethyl)-1-{[3-(phenylmethanesulfon-amido)naphthalen-1-yl]-methyl}-1H-pyrrolo[2,3-b]pyridine-2-carboxylate], 100 to 500 nM.
Consider `NCc1ccc2cc(C(=O)OC[C@H]3CCCN3)n(Cc3cc(NS(=O)(=O)Cc4ccccc4)cc4ccccc34)c2n1` (racemic) [Compound 108, rac-[(2R)-pyrrolidin-2-yl]methyl 6-(aminometh-yl)-1-{[3-(phenylmeth-anesulfonamido)naph-thalen-1-yl]methyl}-1H-pyrrolo[2,3-b]pyridine-2-carboxylate], for which the Ki was in the range of 100 to 500 nM.

Staying with this assay, now noted: Table A; Ki of Matriptase-2 given as class symbols; read-out: Mat-2 Ki.
As to `NCc1ccc2cc(C(=O)O)n(Cc3cc(NS(=O)(=O)CCn4ccnn4)cc4ccccc34)c2n1` [Compound 228, 6-(aminomethyl)-1-({3-[2-(1H-1,2,3-triazol-1-yl)ethanesulfonamido]-naphthalen-1-yl}meth-yl)-1H-pyrrolo[2,3-b]-pyridine-2-carboxylic acid], the Ki lay within 100 to 500 nM.
As for `NCc1ccc2cc(C(=O)O)n(Cc3cc(NS(=O)(=O)CC4CNCCO4)cc4ccccc34)c2n1` (racemic) [Compound 224, 6-(aminomethyl)-1-({3-[(morpholin-2-yl)-methanesulfonamido]-naphthalen-1-yl}meth-yl)-1H-pyrrolo[2,3-b]-pyridine-2-carboxylic acid], the Ki fell in the range of 100 to 500 nM.
`C[C@@H]1C[C@H](C)CN(C(=O)Nc2cc(Cn3c(C(=O)O)cc4ccc(CN)nc43)c3ccccc3c2)C1` [Compound 301, 6-(aminomethyl)-1-[(3-{[(3R,5S)-3,5-dimeth-ylpiperidine-1-carbonyl]-amino}naphthalen-1-yl)-methyl]-1H-pyrrolo[2,3-b]pyridine-2-carboxylic acid]: the Ki is 500 to 3000 nM.
As to `CCN1C[C@@H](S(=O)(=O)Nc2cc(Cn3c(C(=O)O)cc4ccc(CN)nc43)c3ccccc3c2)CC1=O` (racemic) [Compound 282, rac-6-(aminomethyl)-1-({3-[(3R)-1-ethyl-5-oxopyrrolidine-3-sulfon-amido]naphthalen-1-yl}-methyl)-1H-pyrrolo[2,3-b]pyridine-2-carboxylic acid], the Ki was 500 to 3000 nM.
`CC(C)(C)OC(=O)N1CC[C@H](S(=O)(=O)Nc2cc(Cn3c(C(=O)O)cc4ccc(CN)nc43)c3ccccc3c2)C1` [Compound 268]: the Ki is 100 to 500 nM.
`NCc1ccc2cc(C(=O)O)n(Cc3cc(NS(=O)(=O)CCC4CCNCC4)cc4ccccc34)c2n1` [Compound 223, 6-(aminomethyl)-1-({3-[2-(piperidin-4-yl)-ethanesulfonamido]-naphthalen-1-yl}meth-yl)-1H-pyrrolo[2,3-b]-pyridine-2-carboxylic acid]: the Ki was 100 to 500 nM.
With `CC(C)[C@H]1CCN(C(=O)Nc2cc(Cn3c(C(=O)O)cc4ccc(CN)nc43)c3ccccc3c2)C1` (racemic) [Compound 303, rac-6-(aminomethyl)-1-[(3-{[(3R)-3-(propan-2-yl)pyrrolidine-1-carbon-yl]amino}naphthalen-1-yl)methyl]-1H-pyrrolo-[2,3-b]pyridine-2-car-boxylic acid], the Ki lay in the range of 500 to 3000 nM.
The same measure, in the same setting: the same measure for `CC(C)(C)S(=O)(=O)N1CCC(CNC(=O)Nc2cc(Cn3c(C(=O)O)cc4ccc(CN)nc43)c3ccccc3c2)CC1` [Compound 294, 6-(aminomethyl)-1-({3-[({[1-(2-methylpropane-2-sulfonyl)piperidin-4-yl]methyl}carbamoyl)-amino]naphthalen-1-yl}-methyl)-1H-pyrrolo[2,3-b]pyridine-2-carboxylic acid]: 100 to 500 nM; for `NCc1ccc2cc(C(=O)O)n(Cc3cc(NS(=O)(=O)Cc4ccco4)cc4ccccc34)c2n1` [Compound 236, 6-(aminomethyl)-1-({3-[(furan-2-yl)methane-sulfonamido]naphthalen-1-yl}methyl)-1H-pyr-rolo[2,3-b]pyridine-2-carboxylic acid]: 100 to 500 nM.

Staying with this assay, now noted: Table B; Human Recombinant Matriptase 2, 3.5 nM enzyme, 62 μM substrate, 30 mins preincubation; read-out: Mean Ki.
Turning to `CN1CCC(COC(=O)c2cc3ccc(CN)nc3n2CC(NS(=O)(=O)Cc2ccccc2)c2ccccc2)CC1` (centres unmarked) [Compound 2.37], the Ki was above 3000 nM.

A word on the Ki: it is the equilibrium dissociation constant of an inhibitor or competing ligand from its target.

The values above are taken from patent US20240400553A1, “AMINE BASED MATRIPTASE 2 INHIBITORS AND USES THEREOF” (Disc Medicine, Inc., priority 2023, published 2024).
